Source: publication PMC3038857, “Using Nuclear Receptor Activity to Stratify Hepatocarcinogens” (PLoS ONE, 2011)

Key:
[1] = target: T1, ESR1 (estrogen receptor 1) (Homo sapiens, UniProt P03372); test: ATG_ERa_TRANS: Factorial reporter gene assay (HepG2); assay type: cell-based
T1 construct: expressed in transfected cells; host or cells: HepG2
Description: (§1) A multiple reporter transcription unit (MRTU) library consisting of 48 transcription factor binding sites was transfected into the HepG2 human liver hepatoma cell line. In addition to the cis-acting reporter genes (CIS), a modification of the approach was used to generate a trans-system (TRANS) with a mammalian one-hybrid assay consisting of an additional 25 MRTU library reporting the activity of nuclear receptor super-family members. […] These assays were performed by Attagene Inc. (Morrisville NC) under contract to EPA.
(§2) In addition to the cis-acting reporter genes (CIS), a modification of the approach was used to generate a trans-system (TRANS) with a mammalian one-hybrid assay consisting of an additional 25 MRTU library reporting the activity of nuclear receptor super-family members. […] Chemicals were then tested in the CIS and TRANS assays at seven concentrations starting at the MTC and followed by three-fold serial dilutions. These assays were performed by Attagene Inc. (Morrisville NC) under contract to EPA. Detailed description of the methods, data and analysis methods for this dataset will be presented in a separate publication.

[2] = test system: Rat Liver; conditions: chronic study, rat liver; ref ToxRefDB; cited from earlier work
[3] = test system: ABCB11; test: CLZD_ABCB11: Change in expression of ABCB11 (primary human hepatocytes); assay type: cell-based; conditions: 24 hr
Description: This is a collection of multiplexed gene expression assays focused on Phase I and II xenobiotic metabolizing enzymes and transporters. Human primary cell cultures were treated with chemicals at 5 concentrations (0.004-40 [drawing 42] M) for 6, 24 and 48 hr. Concentration- and time-response profiles of chemicals were measured by the expression of key nuclear receptor target genes, activities of CYP1A enzymes (EROD), and cell morphology. Fourteen gene targets were monitored by quantitative nuclease protection assay including: six representative cytochrome P-450 genes, four hepatic transporters, three Phase II conjugating enzymes, and one endogenous metabolism gene involved in cholesterol synthesis. The target genes associated with nuclear receptor pathways are as follows: [drawing 43] and [drawing 44] with [drawing 45]; [drawing 46] , [drawing 47] , [drawing 48] , [drawing 49] , [drawing 50] and [drawing 51] with [drawing 52]; [drawing 53] , [drawing 54] , [drawing 55] and [drawing 56] with [drawing 57]; [drawing 58] with [drawing 59]; and [drawing 60] with [drawing 61] . Assays were run in primary human hepatocyte cultures by CellzDirect Invitrogen Inc. (Durham, NC), in collaboration with EPA.
Multiplexed Gene Expression in Human Primary Hepatocytes: This is a collection of multiplexed gene expression assays focused on Phase I and II metabolic enzymes and transporters. […] Fourteen gene targets were monitored by quantitative nuclease protection assay: six representative cytochrome P450 genes, four hepatic transporters, three Phase II conjugating enzymes, and one endogenous metabolism gene involved in cholesterol synthesis. Cells were exposed at 5 concentrations (0.004-40 µM) for 6, 24 or 48 hr. Gene targets are sentinels for five nuclear receptor signaling pathways: AhR, CAR, PXR, FXR, and PPARα. All gene are associated with nuclear receptor pathways: CYP1A1 and CYP1A2 with AHR; ABCB1, ABCG2, CYP2B6, CYP2C9, CYP2C19 and UGT1A1 with CAR; CYP3A4, GSTA2, SLCO1B1 and SULT2A1 with PXR; HMGCS2 with PPARA; and ABCB11 with FXR. […] Detailed description of the methods, data and analysis methods for this dataset will be presented in a separate publication.

[4] = target: T1, ESR1 (estrogen receptor 1); test: ATG_ERE_CIS: Factorial reporter gene assay (HepG2); assay type: cell-based
Description: as §1, §2

[5] = test system: Rat Liver; conditions: chronic study, rat liver; ref ToxRefDB; cited from earlier work; remark: listed apart in the source
[6] = target: T2, CAR (NR1I3) (Homo sapiens, UniProt Q14994); test: ATG_PBREM_CIS: Factorial reporter gene assay (HepG2); assay type: cell-based; parameters: endogenous in cells; host or cells: HepG2; conditions: HepG2 reporter
T2 sequence (Q14994 1-352): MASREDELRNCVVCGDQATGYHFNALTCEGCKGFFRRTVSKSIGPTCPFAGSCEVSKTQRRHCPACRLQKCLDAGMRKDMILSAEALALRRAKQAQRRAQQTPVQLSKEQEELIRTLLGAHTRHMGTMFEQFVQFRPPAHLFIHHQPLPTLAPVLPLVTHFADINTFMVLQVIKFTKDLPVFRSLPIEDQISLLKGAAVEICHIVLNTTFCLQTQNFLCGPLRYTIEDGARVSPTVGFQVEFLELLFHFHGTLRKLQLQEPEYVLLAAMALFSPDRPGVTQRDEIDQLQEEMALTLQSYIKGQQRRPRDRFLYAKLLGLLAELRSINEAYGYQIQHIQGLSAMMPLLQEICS
Description: as §1, §2

[7] = test system: Rat Liver; conditions: chronic study, rat liver; ref ToxRefDB; cited from earlier work; remark: listed apart in the source
[8] = target: T3, ERa (ESR1) (Homo sapiens, UniProt P03372); test: NCGC_ERalpha_Antagonist: GAL4 BLAM Reporter gene assay: ERa; assay type: cell-based; conditions: antagonist mode
T3 construct: expressed in transfected cells; host or cells: HEK293

[9] = target: T4, PPARG (peroxisome proliferator-activated receptor gamma) (Homo sapiens, UniProt P37231); test: ATG_PPARg_TRANS: Factorial reporter gene assay (HepG2); assay type: cell-based; conditions: HepG2 reporter
T4 construct: expressed in transfected cells; host or cells: HepG2
T4 sequence (P37231 1-505): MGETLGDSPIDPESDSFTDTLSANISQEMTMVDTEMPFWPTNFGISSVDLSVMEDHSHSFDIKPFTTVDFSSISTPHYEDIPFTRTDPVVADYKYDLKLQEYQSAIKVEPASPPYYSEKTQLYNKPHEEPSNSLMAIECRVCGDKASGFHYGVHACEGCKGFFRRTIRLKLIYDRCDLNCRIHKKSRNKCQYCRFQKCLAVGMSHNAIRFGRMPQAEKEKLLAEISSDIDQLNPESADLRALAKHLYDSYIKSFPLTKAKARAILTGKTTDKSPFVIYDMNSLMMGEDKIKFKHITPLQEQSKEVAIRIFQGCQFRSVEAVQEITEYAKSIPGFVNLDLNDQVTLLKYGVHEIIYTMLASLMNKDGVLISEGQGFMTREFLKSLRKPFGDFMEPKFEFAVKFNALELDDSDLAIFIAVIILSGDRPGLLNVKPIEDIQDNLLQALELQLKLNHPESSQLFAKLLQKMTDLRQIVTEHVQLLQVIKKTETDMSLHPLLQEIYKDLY
In short: (§3)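 Compounds at seven concentrations (top at MTC, threefold serial) were applied to transfected HepG2 hepatoma cells, with PXRE scored by cis-element reporters and ERRg, FXR and PPARg scored by trans one-hybrid nuclear receptor reporters.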

[10] = target: T5, PXR (NR1I2) (Homo sapiens, UniProt O75469); test: ATG_PXRE_CIS: Factorial reporter gene assay (HepG2); assay type: cell-based; parameters: endogenous in cells; host or cells: HepG2
T5 sequence (O75469 1-434): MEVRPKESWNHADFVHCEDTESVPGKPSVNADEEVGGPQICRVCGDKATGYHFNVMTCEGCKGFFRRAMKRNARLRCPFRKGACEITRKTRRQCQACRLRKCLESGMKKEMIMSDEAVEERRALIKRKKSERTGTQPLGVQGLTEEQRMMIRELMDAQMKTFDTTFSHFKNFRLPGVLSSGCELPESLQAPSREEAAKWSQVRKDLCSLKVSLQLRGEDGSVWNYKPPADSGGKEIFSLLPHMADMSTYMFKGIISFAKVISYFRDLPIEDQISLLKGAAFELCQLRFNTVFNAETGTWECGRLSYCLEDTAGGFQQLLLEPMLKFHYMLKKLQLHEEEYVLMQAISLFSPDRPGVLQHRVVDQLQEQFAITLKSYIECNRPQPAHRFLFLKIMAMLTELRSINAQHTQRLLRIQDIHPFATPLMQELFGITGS
In short: as §3

[11] = test system: CYP3A4; test: CLZD_CYP3A4: Change in expression of CYP3A4 (primary human hepatocytes); assay type: cell-based; conditions: 24 hr
In short: (§4)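 Cultured primary human hepatocytes treated with chemicals for 6, 24 or 48 hr across five concentrations spanning 0.004-40 µM, then transcript level measured by quantitative nuclease protection in a multiplexed format.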

[12] = test system: CYP2B6; test: CLZD_CYP2B6: Change in expression of CYP2B6 (primary human hepatocytes); assay type: cell-based; conditions: 24 hr
In short: as §4

[13] = target: T3, ERa (ESR1); test: NCGC_ERalpha_Agonist: GAL4 BLAM Reporter gene assay: ERa; assay type: cell-based; conditions: agonist mode
Description: These assays measure binding constants and enzyme inhibition values for nuclear receptors. The targets include [drawing 67] , [drawing 68] , [drawing 69] , [drawing 70] , [drawing 71] , [drawing 72] , [drawing 73] , [drawing 74] , [drawing 75] and [drawing 76] . Each of the nuclear receptor targets was measured in agonist mode. Assays were run at the NIH Chemical Genomics Center (Rockville, MD).
Cell-based HTS Assays: These assays measuring binding constants and enzyme inhibition values for nuclear receptors. The targets include AR, ER, FXR, LXR, PPARα, PPARδ, PPARγ, RXRα, RXRβ and PXR. Each of the nuclear receptor targets was measured in both agonist and antagonist mode, but the antagonist data is still undergoing analysis due to possible interference between cytotoxicity and assay activity, so antagonist mode data were not used in the present analysis. Assays were run at the NIH Chemical Genomics Center (Rockville, MD) as part of the Tox21 collaboration. […] The R^2 was required to be ≥0.5. Values where only the highest concentration exceeded 50% activity were excluded to eliminate weak or false positives. Detailed description of the methods, data and analysis methods for this dataset will be presented in a separate publication.

[14] = test system: CYP1A2; test: CLZD_CYP1A2: Change in expression of CYP1A2 (primary human hepatocytes); assay type: cell-based; conditions: 24 hr
In short: as §4

T3 sequence (P03372 whole entry, the tested form may be a part): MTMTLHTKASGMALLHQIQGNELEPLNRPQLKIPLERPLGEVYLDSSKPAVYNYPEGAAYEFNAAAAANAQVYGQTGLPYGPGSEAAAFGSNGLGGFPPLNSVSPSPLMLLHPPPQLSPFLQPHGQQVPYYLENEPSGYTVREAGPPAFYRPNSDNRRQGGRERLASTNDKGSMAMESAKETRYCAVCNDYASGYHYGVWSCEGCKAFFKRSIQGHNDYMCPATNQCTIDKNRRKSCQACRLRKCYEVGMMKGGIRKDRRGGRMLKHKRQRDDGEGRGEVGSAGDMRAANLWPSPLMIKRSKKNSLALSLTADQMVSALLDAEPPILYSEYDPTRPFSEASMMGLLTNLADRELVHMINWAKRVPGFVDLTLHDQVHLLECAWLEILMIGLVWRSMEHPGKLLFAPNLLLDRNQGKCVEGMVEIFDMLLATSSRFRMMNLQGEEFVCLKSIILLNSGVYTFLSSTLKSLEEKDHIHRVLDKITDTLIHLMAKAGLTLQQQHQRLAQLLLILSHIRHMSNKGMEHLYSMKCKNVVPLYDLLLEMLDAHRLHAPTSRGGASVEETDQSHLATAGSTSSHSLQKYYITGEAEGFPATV
T1 sequence (P03372 whole entry): as the sequence (P03372 whole entry, the tested form may be a part) above

Row | SMILES | ATG_ERa_TRANS ([1]; HepG2 reporter) | CHR_Rat_Liver_1_AnyLesion [2] | CLZD_ABCB11_24 [3] | ATG_ERE_CIS ([4]; HepG2 reporter) | CHR_Rat_Liver_3_NeoplasticLesion [5] | ATG_PBREM_CIS [6] | CHR_Rat_Liver_2_PreneoplasticLesion [7] | NCGC_ERalpha_Antagonist [8] | ATG_PPARg_TRANS [9] | ATG_PXRE_CIS ([10]; HepG2 reporter) | CLZD_CYP3A4_24 [11] | ATG_ERa_TRANS ([1]; HepG2) | ATG_ERE_CIS ([4]; HepG2) | CLZD_CYP2B6_24 [12] | NCGC_ERalpha_Agonist [13] | CLZD_CYP1A2_24 [14] | ATG_PXRE_CIS ([10]; HepG2)
1 | CC(C)(C)c1ccc(CSc2cnn(C(C)(C)C)c(=O)c2Cl)cc1 [r272] | 4.367 | 0 | 5.168 | 4.959 | 0 | 5.699 | 0 | 5.155 | 4.854 | 5.444 | – | – | – | – | – | – | –
2 | COc1ccc(C(c2ccc(OC)cc2)C(Cl)(Cl)Cl)cc1 [row 201] | – | – | – | – | – | – | – | 4.409 | – | – | 4.692 | 5.569 | 5.398 | 5.24 | 5.406 | 5.201 | 5.036
